Key:
Assay in all cases: relative viability (nuclei count vs DMSO), 5 days (fraction); higher = more cells survive
[1] = system: PC-3 [JPC-3]
Procedure, shortened: (§1)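 Values are medians from duplicate plates. Each reflects relative viability, defined as the nuclei count of treated wells over that of vehicle wells. Lung cancer cell lines in 1536-well plates were pin-tool dosed one day after seeding with one drug alone or with a fixed anchor-drug dose plus five library-drug doses (not always all listed) in √10 steps, then fixed, stained and imaged at 4× after 5 days.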

[2] = system: CAL-12T
Procedure, shortened: as §1

[3] = system: NCI-H1915
Procedure, shortened: as §1

[4] = system: BEN
Procedure, shortened: as §1

[5] = system: NCI-H1651
Procedure, shortened: as §1

[6] = system: NCI-H441
Procedure, shortened: as §1

[7] = system: NCI-H1944
Procedure, shortened: as §1

[8] = system: NCI-H460
Procedure, shortened: as §1

[9] = system: 201T
Procedure, shortened: as §1

[10] = system: NCI-H2087
Procedure, shortened: as §1

[11] = system: LCLC-97TM1
Procedure, shortened: as §1

[12] = system: NCI-H2023
Procedure, shortened: as §1

[13] = system: NCI-H661
Procedure, shortened: as §1

[14] = system: A-427
Procedure, shortened: as §1

[15] = system: LC-2-ad
Procedure, shortened: as §1

[16] = system: NCI-H1792
Procedure, shortened: as §1

[17] = system: NCI-H520
Procedure, shortened: as §1

[18] = system: NCI-H596
Procedure, shortened: as §1

[19] = system: NCI-H650
Procedure, shortened: as §1

[20] = system: H3255
Procedure, shortened: as §1

[21] = system: NCI-H1650
Procedure, shortened: as §1

[22] = system: HCC-15
Procedure, shortened: as §1

[23] = system: NCI-H727
Procedure, shortened: as §1

C[C@@H]1CN(CC(=O)Nc2ccc3c(c2)Cc2cccc(-c4cc(=O)cc(N5CCOCC5)o4)c2S3)C[C@H](C)O1 + Nc1nc2[nH]cc(CCc3ccc(C(=O)N[C@@H](CCC(=O)O)C(=O)O)cc3)c2c(=O)[nH]1 [Pemetrexed] (partner 0.2 µM)
relative viability ([1]; first compound 0.04 µM): 1.04 | relative viability ([1]; first compound 0.1265 µM): 1.09 | relative viability ([1]; first compound 0.4 µM): 1.21 | relative viability ([1]; first compound 4 µM): 0.943 | relative viability ([2]; first compound 0.04 µM): 1.27 | relative viability ([2]; first compound 0.1265 µM): 1.21 | relative viability ([2]; first compound 0.4 µM): 1.08 | relative viability ([2]; first compound 4 µM): 0.428 | relative viability ([3]; first compound 0.04 µM): 0.478 | relative viability ([3]; first compound 0.1265 µM): 0.426 | relative viability ([3]; first compound 0.4 µM): 0.413 | relative viability ([3]; first compound 4 µM): 0.358 | relative viability ([4]; first compound 0.04 µM): 0.633 | relative viability ([4]; first compound 0.1265 µM): 0.713 | relative viability ([4]; first compound 0.4 µM): 0.749 | relative viability ([4]; first compound 4 µM): 0.648 | relative viability ([5]; first compound 0.04 µM): 0.549 | relative viability ([5]; first compound 0.1265 µM): 0.565 | relative viability ([5]; first compound 0.4 µM): 0.569 | relative viability ([5]; first compound 4 µM): 0.52 | relative viability ([6]; first compound 0.04 µM): 0.281 | relative viability ([6]; first compound 0.1265 µM): 0.263 | relative viability ([6]; first compound 0.4 µM): 0.247 | relative viability ([6]; first compound 4 µM): 0.217 | relative viability ([7]; first compound 0.1265 µM): 0.819 | relative viability ([7]; first compound 0.4 µM): 0.642 | relative viability ([7]; first compound 4 µM): 0.616 | relative viability ([8]; first compound 0.04 µM): 0.0638 | relative viability ([8]; first compound 0.1265 µM): 0.0634 | relative viability ([8]; first compound 0.4 µM): 0.0696 | relative viability ([8]; first compound 4 µM): 0.0616 | relative viability ([9]; first compound 0.04 µM): 0.329 | relative viability ([9]; first compound 0.1265 µM): 0.319 | relative viability ([9]; first compound 0.4 µM): 0.295 | relative viability ([9]; first compound 4 µM): 0.314 | relative viability ([10]; first compound 0.04 µM): 0.676 | relative viability ([10]; first compound 0.1265 µM): 0.668 | relative viability ([10]; first compound 0.4 µM): 0.677 | relative viability ([10]; first compound 4 µM): 0.621 | relative viability ([11]; first compound 0.1265 µM): 0.192 | relative viability ([11]; first compound 0.4 µM): 0.183 | relative viability ([11]; first compound 4 µM): 0.17 | relative viability ([12]; first compound 0.04 µM): 0.263 | relative viability ([12]; first compound 0.1265 µM): 0.213 | relative viability ([12]; first compound 0.4 µM): 0.203 | relative viability ([12]; first compound 4 µM): 0.199 | relative viability ([13]; first compound 0.04 µM): 0.969 | relative viability ([13]; first compound 0.1265 µM): 0.904 | relative viability ([13]; first compound 0.4 µM): 0.899 | relative viability ([13]; first compound 4 µM): 0.894 | relative viability ([14]; first compound 0.04 µM): 1.05 | relative viability ([14]; first compound 0.1265 µM): 1.04 | relative viability ([14]; first compound 0.4 µM): 1.02 | relative viability ([14]; first compound 4 µM): 0.921 | relative viability ([15]; first compound 0.04 µM): 0.272 | relative viability ([15]; first compound 0.1265 µM): 0.248 | relative viability ([15]; first compound 0.4 µM): 0.291 | relative viability ([15]; first compound 4 µM): 0.249 | relative viability ([16]; first compound 0.04 µM): 0.72 | relative viability ([16]; first compound 0.1265 µM): 0.766 | relative viability ([16]; first compound 0.4 µM): 0.719 | relative viability ([16]; first compound 4 µM): 0.591 | relative viability ([17]; first compound 0.04 µM): 0.844 | relative viability ([17]; first compound 0.1265 µM): 0.666 | relative viability ([17]; first compound 0.4 µM): 0.534 | relative viability ([17]; first compound 4 µM): 0.492 | relative viability ([18]; first compound 0.04 µM): 0.548 | relative viability ([18]; first compound 0.1265 µM): 0.535 | relative viability ([18]; first compound 0.4 µM): 0.429 | relative viability ([18]; first compound 4 µM): 0.481 | relative viability ([19]; first compound 0.04 µM): 0.925 | relative viability ([19]; first compound 0.1265 µM): 0.866 | relative viability ([19]; first compound 0.4 µM): 0.943 | relative viability ([19]; first compound 4 µM): 0.812 | relative viability ([20]; first compound 0.04 µM): 0.539 | relative viability ([20]; first compound 0.1265 µM): 0.522 | relative viability ([20]; first compound 0.4 µM): 0.482 | relative viability ([20]; first compound 4 µM): 0.489 | relative viability ([21]; first compound 0.04 µM): 0.367 | relative viability ([21]; first compound 0.1265 µM): 0.353 | relative viability ([21]; first compound 0.4 µM): 0.408 | relative viability ([21]; first compound 4 µM): 0.329 | relative viability ([22]; first compound 0.04 µM): 0.212 | relative viability ([22]; first compound 0.1265 µM): 0.203 | relative viability ([22]; first compound 0.4 µM): 0.224 | relative viability ([22]; first compound 4 µM): 0.212

CC(C)Oc1cc(Nc2nc(N[C@@H](C)c3ccc(F)cn3)ncc2Cl)n[nH]1 [AZ23] + CC1(C)CCC(c2ccc(Cl)cc2)=C(CN2CCN(c3ccc(C(=O)NS(=O)(=O)c4ccc(N[C@H](CCN5CCOCC5)CSc5ccccc5)c(S(=O)(=O)C(F)(F)F)c4)cc3)CC2)C1 [Navitoclax] (partner 0.5 µM)
relative viability ([1]; first compound 0.01 µM): 0.881 | relative viability ([1]; first compound 0.03162 µM): 0.863 | relative viability ([1]; first compound 0.3162 µM): 0.762 | relative viability ([2]; first compound 0.01 µM): 0.61 | relative viability ([2]; first compound 0.03162 µM): 1.28 | relative viability ([2]; first compound 0.3162 µM): 1.17 | relative viability ([3]; first compound 0.01 µM): 0.799 | relative viability ([3]; first compound 0.03162 µM): 0.845 | relative viability ([3]; first compound 0.3162 µM): 0.797 | relative viability ([4]; first compound 0.01 µM): 0.0781 | relative viability ([4]; first compound 0.03162 µM): 0.0578 | relative viability ([4]; first compound 0.3162 µM): 0.0639 | relative viability ([5]; first compound 0.01 µM): 0.887 | relative viability ([5]; first compound 0.03162 µM): 1.11 | relative viability ([5]; first compound 0.3162 µM): 1.11 | relative viability ([6]; first compound 0.01 µM): 0.518 | relative viability ([6]; first compound 0.03162 µM): 0.755 | relative viability ([6]; first compound 0.3162 µM): 0.769 | relative viability ([7]; first compound 0.01 µM): 0.985 | relative viability ([7]; first compound 0.03162 µM): 1.07 | relative viability ([7]; first compound 0.3162 µM): 1.01 | relative viability ([8]; first compound 0.01 µM): 1.12 | relative viability ([8]; first compound 0.03162 µM): 1.41 | relative viability ([8]; first compound 0.3162 µM): 1.44 | relative viability ([9]; first compound 0.01 µM): 1.23 | relative viability ([9]; first compound 0.03162 µM): 1.22 | relative viability ([9]; first compound 0.3162 µM): 1.17 | relative viability ([23]; first compound 0.01 µM): 0.382 | relative viability ([23]; first compound 0.03162 µM): 0.506 | relative viability ([23]; first compound 0.3162 µM): 0.385 | relative viability ([10]; first compound 0.01 µM): 1.14 | relative viability ([10]; first compound 0.03162 µM): 1.12 | relative viability ([10]; first compound 0.3162 µM): 0.914 | relative viability ([11]; first compound 0.01 µM): 0.381 | relative viability ([11]; first compound 0.03162 µM): 0.364 | relative viability ([11]; first compound 0.3162 µM): 0.603 | relative viability ([12]; first compound 0.03162 µM): 1.1 | relative viability ([12]; first compound 0.3162 µM): 1.05 | relative viability ([14]; first compound 0.01 µM): 0.941 | relative viability ([14]; first compound 0.03162 µM): 1.06 | relative viability ([14]; first compound 0.3162 µM): 0.864 | relative viability ([15]; first compound 0.01 µM): 0.386 | relative viability ([15]; first compound 0.03162 µM): 0.474 | relative viability ([15]; first compound 0.3162 µM): 0.415 | relative viability ([16]; first compound 0.01 µM): 0.763 | relative viability ([16]; first compound 0.03162 µM): 0.858 | relative viability ([16]; first compound 0.3162 µM): 0.693 | relative viability ([17]; first compound 0.01 µM): 0.972 | relative viability ([17]; first compound 0.03162 µM): 1.31 | relative viability ([17]; first compound 0.3162 µM): 1.08 | relative viability ([18]; first compound 0.01 µM): 0.854 | relative viability ([18]; first compound 0.03162 µM): 1.04 | relative viability ([18]; first compound 0.3162 µM): 0.747 | relative viability ([20]; first compound 0.01 µM): 0.514 | relative viability ([20]; first compound 0.03162 µM): 0.677 | relative viability ([20]; first compound 0.3162 µM): 0.556 | relative viability ([21]; first compound 0.01 µM): 0.925 | relative viability ([21]; first compound 0.03162 µM): 1.28 | relative viability ([21]; first compound 0.3162 µM): 1.05 | relative viability ([22]; first compound 0.01 µM): 0.744 | relative viability ([22]; first compound 0.03162 µM): 0.798 | relative viability ([22]; first compound 0.3162 µM): 0.71

— the supplement of paper PMC10307832
